Here are results for 3 molecules from patent publication US11524080B2 (priority 2018, dated 2022).

The test system of one series is B. pseudomallei K96243. In words: microbe, parasite or virus in culture. Format: cell-based. As to conditions: Burkholderia pseudomallei.
The conditions of series [1]: mouse, in vivo, po.
The conditions of series [2]: mouse, in vivo.
The subject of series [3] is F. tularensis SCHU-S4. In words: microbe, parasite or virus in culture. It counts as cell-based. As to conditions: Francisella tularensis, SCHUS4.
The test system of series [4] is F. tularensis SCHU-S4. In words: microbe, parasite or virus in culture. It counts as cell-based. As to conditions: Francisella tularensis, SCHUS4. The source holds these as a separate data set.
The next series can be described thus: in vivo. As to conditions: female, Balb/c, mouse.
The conditions of series [5]: mouse, in vivo, 50 mg/kg.

Converted amounts (≈) assume the structure as drawn. Where two headings read alike, the source gives them in different places.

The molecule `O=C(O)c1cn(C2CC2)c2cc(N3CCNCC3)c(F)cc2c1=O` [Free ciprofloxacin, ciprofloxacin] gave an MBC with B. pseudomallei K96243 of 16 µg/mL (≈ 48.3 µM). In series [1], the “Mean weight gain on Day 36” value stood at 2.4% and the “Mean weight loss of starting weight by Day 8” value (“Mean weight loss” below) was 4.4%. The “Effect on body weight” value in series [2] is recorded as “significantly induced weight loss”.

In the series with F. tularensis SCHU-S4 [3], `C[C@H]1c2cccc(O)c2C(=O)C2=C(O)[C@]3(O)C(=O)C(C(N)=O)=C(O)[C@@H](N(C)C)[C@@H]3[C@@H](O)[C@@H]21` [Free doxycycline, doxycycline hyclate] came in with an MIC of 0.5 µg/mL (≈ 1.13 µM). In series [1], the “Mean weight gain on Day 36” value stood at 1.7% and the “Mean weight loss” value was 5.2%. The MBC in the series on F. tularensis SCHU-S4 [4] is over 64 µg/mL. In addition, the “Effect on body weight” value in series [2] is reported as “strong indication for doxycycline-based weight loss”. Also, the Necropsy findings result in series [2] (ip) was “peritoneal adhesions involving spleen, pancreas, intestines and kidney”. For the same molecule, in series [2] (po), the Necropsy findings result is “two mice had slightly rounded edges to the lobes of the liver”.

In the case of `C[C@H]1COc2c(N3CCN(C)CC3)c(F)cc3c(=O)c(C(=O)O)cn1c23` [Free levofloxacin, levofloxacin], in series [1], the “Mean weight gain on Day 36” value came out at 3.2%. Also, the “Mean weight loss” value in series [1] is 3.3%. In addition, the Cmax was 50200 ng/mL in the series “in vivo” (ip, 50 mg/kg); 2100 ng/mL in the series “in vivo” (ip, 100 mg/kg); 46100 ng/mL in the series “in vivo” (po, 50 mg/kg). Besides, the AUC is 122.1861 µg/mL/h in series [5] (ip) and 119.6124 µg/mL/h in series [5] (po). Besides, the figures for the Tmax in series [5] (ip) and in series [5] (po) were 18 min and 36 min, respectively. In addition, the “Effect on body weight” value in series [2] is “minimal”.

What is called Cmax is the maximum level reached in the sampled fluid or tissue. Broadly, the Tmax is the time at which the peak concentration occurs.
